Here are results for four compounds from patent publication US20240415819A1, “MACROCYCLIC COMPOUNDS AS PROTEASOME SUBUNIT BETA TYPE-5 INHIBITORS” (Lead Discovery Center GmbH, priority 2021, published 2024).

For assay [1], the target named is T1, β5 subunit of the human immunoproteasome (IPS) (Homo sapiens, UniProt P28062).
T1 construct: purchased Boston Biochem E-370
Put plainly: β5 inhibition assay, human immunoproteasome (Suc-LLVY-AMC). The settings on record: IC50 class, Suc-LLVY-AMC substrate. In kind it is biochemical. The procedure, abridged: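 β5 activity is read as liberated AMC fluorescence (355/460 nm) after 4 h dark reaction at RT with 22.6 μM Suc-LLVY-AMC, stopped by 1 μM bortezomib. Beforehand, 1 nM human IPS and compound sat 10 min at RT in HEPES pH 7.5 buffer containing NaCl, 0.02% SDS and DTT.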

Assay [2] relates to A549 (human lung carcinoma cell line). Put plainly: Glo assay of A549 cells (Table 3; ProteasomeGlo plating scheme). In kind it is cell-based. The settings on record: Homo sapiens; A549 cells; read-out: PGLo A549. The method, boiled down:
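Luminescent read-out of cellular chymotrypsin-like proteasome activity: cells exposed to compound 105 min at 37° C., 5% CO2, then given Suc-LLVY-Glo reagent, shaken 2-5 min and kept dark 10-15 min before reading. Values are IC50 [nM].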

As for `CC(=O)N[C@H]1CCCC(=O)N2CCCC(CCOc3ccc(C)c(c3)CNC(=O)[C@H](CCc3ccccc3)NC1=O)C2` (stereo partly drawn) [Compound 213, N-((9S,12S)-5^4-methyl-8,11,16-trioxo-9-phenethyl-4-oxa-7,10-diaza-1(3,1)-piperidina-5(1,3)-benzenacyclohexadecaphane-12-yl)acetamide], the values for the IC50 in assay [1] and in assay [2] were < 100 nM and 100 to 500 nM, respectively.

With `Cc1ccc2cc1CNC(=O)[C@H](CCc1ccccc1)NC(=O)[C@@H](NC(=O)c1cc3cc(C(F)(F)F)ccc3n1C)CC(=O)N1CCCC(CCO2)C1` (stereo partly drawn) [Compound 87, 1-methyl-N-((9S,12S)-5^4-methyl-8,11,14-trioxo-9-phenethyl-4-oxa-7,10-diaza-1(3,1)-piperidina-5(1,3)-benzenacyclotetradecaphane-12-yl)-5-(trifluoromethyl)-1H-indole-2-carboxamide], the IC50 in assay [1] and in assay [2] was < 100 nM each time.

Turning to `CC(=O)N[C@H]1CC(=O)N2CCCC(CCOc3ccc(C)c(c3)CNC(=O)C(c3cnn(CCCS(=O)(=O)O)c3)NC1=O)C2` (stereo partly drawn) [Compound 571, 3-(4-((12S)-12-acetamido-5^4-methyl-8,11,14-trioxo-4-oxa-7,10-diaza-1(3,1)-piperidina-5(1,3)-benzenacyclotetradecaphane-9-yl)-1H-pyrazol-1-yl)propane-1-sulfonic acid], the IC50 in assay [1] and in assay [2] was < 100 nM each time.

As to `Cc1ccc2cc1CNC(=O)[C@H](CCc1ccccc1)NC(=O)[C@@H](NS(=O)(=O)CCc1ccccc1)CC(=O)N1CCCC(CCO2)C1` (stereo partly drawn) [Compound 217, N-((9S,12S)-5^4-methyl-8,11,14-trioxo-9-phenethyl-4-oxa-7,10-diaza-1(3,1)-piperidina-5(1,3)-benzenacyclotetradecaphane-12-yl)-2-phenylethane-1-sulfonamide], the IC50 in assay [1] and in assay [2] was < 100 nM throughout.
